Laboratory results from US20240360177A1, “PEPTIDES WITH ANTIMICROBIAL ACTIVITIES” (priority 2021, published 2024).
Values after ≈ are worked out from the molar mass of the structure shown. Where two headings read alike, the source gives them in different places. Non-standard residues stand in square brackets, D forms with d. Residues, ends and D or L forms follow the SMILES beside them. Ahp = NCCCCCCC(=O)O; Ava = NCCCCC(=O)O; βAla = NCCC(=O)O

Legend:
C. parapsilosis [1] = details: 24 h
[2] = Plasma pharmacokinetics after single IV or IP dose in mice; assay type: in vivo, CD-1 mice
Protocol: The in vitro enzymatic and serum stability of the peptides is manifested by the in vivo plasma pharmacokinetic (PK) profile. A single 5 mg/kg intravenous injection (via tail vein) and a single 7.5 mg/kg intraperitoneal dose of SEQ ID NO: 7 were administered to 2 groups of CD-1 mice (n=3 per group). […] Serial blood samples were collected from the saphenous vein into EDTA-K2 as anti-coagulant at time points up to 4 hrs or 8 hrs after the intravenous or intraperitoneal doses. Plasma was separated and analyzed by an LC-MS/MS method as follows. Due to the small blood volume collected from each mouse, the plasma was pooled from 3 mice before analysis. A 50 μL of plasma was protein precipitated with a 100 μL solution of 300 ng/mL TAT peptide ([…]; SEQ ID NO: 99) as the internal standard in 5% trichloroacetic acid. After centrifugation, an aliquot of the supernatant was injected onto an HPLC column (Waters ACQUITY UPLC HSS T3, 2.1*50 mm, 1.8 μm) eluted with a gradient of mobile phase containing 0.1% perfluoropentanoic acid (PFPA) in water and 0.1% PFPA in acetonitrile. The peptide and the internal standard were detected using a Triple Quad 6500+ mass spectrometer operated with electro-spray ionization in the positive-ion SRM mode. The calibration curve range was from 10 to 4000 ng/mL. The mean plasma concentration of SEQ ID NO: 7 after the single intravenous and intraperitoneal doses are depicted in FIG. 2.
C0 or Cmax is concentration at time of injection for IV dose, or maximal concentration after IP dose; tmax is the time when C0 or Cmax was observed; t1/2 is plasma half-life; AUC is area under the plasma concentration vs. time curve; F is absolute bioavailability.

C. auris [3] = details: 24 h
C. albicans [4] = details: 24 h
Paecilomyces variotii = details: 48 h
C. tropicalis [5] = details: 24 h
C. gattii [6] = details: 72 h
Rhizopus arrhizus = details: 24 h
Endoproteinase Arg-C = biological target: T1, Endoproteinase Arg-C (Hathewaya histolytica, UniProt P09870); assay: Endoproteinase Arg-C digestion stability; assay type: in vitro ADME; details: 37° C.
T1 construct: purchased Sigma Aldrich 11370529001
T1 sequence (P09870 51-181): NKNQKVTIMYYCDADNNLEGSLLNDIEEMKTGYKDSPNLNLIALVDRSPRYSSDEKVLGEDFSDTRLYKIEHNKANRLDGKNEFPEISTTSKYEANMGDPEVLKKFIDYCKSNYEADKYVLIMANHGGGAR
T1 sequence (P09870 191-526): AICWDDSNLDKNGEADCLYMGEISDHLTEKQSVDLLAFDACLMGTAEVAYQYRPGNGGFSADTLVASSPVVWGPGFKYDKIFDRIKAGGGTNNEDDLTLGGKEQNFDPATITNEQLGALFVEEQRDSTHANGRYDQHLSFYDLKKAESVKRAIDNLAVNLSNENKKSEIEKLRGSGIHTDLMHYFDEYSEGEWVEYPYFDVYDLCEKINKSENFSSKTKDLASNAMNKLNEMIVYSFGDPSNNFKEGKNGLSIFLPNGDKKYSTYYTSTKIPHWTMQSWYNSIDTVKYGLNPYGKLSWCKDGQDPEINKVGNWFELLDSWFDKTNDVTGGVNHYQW

Coccidioides species = details: N = 3 strains; 48-72 hrs; >50% inhibition
C. neoformans [7] = details: 72 h
C. dubliniensis = details: 24 h
C. krusei [8] = details: 24 h
[9] = Acute toxicity in CD-1 mice; details: both sexes, mouse, in vivo
Protocol: Acute toxicity and subacute toxicity of ACPs were tested in CD-1 mice. In the acute toxicity study, groups of CD-1 male or female mice were administered single intravenous or intraperitoneal escalating doses (n=2-3 per dose) of the peptides dissolved in normal saline for injection or in phosphate buffered saline. The intravenous dose was administered via tail vein with a slow push over 15-20 seconds. Doses were escalated based on tolerability.

in vitro [10] = details: human, EC50 cytotoxicity in HepG2, intracellular ATP assay
in vitro [11] = details: human, human serum, full strength
[12] = Subacute toxicity in CD-1 mice; assay type: in vivo; details: daily IP for 7 days
Protocol: In the subacute toxicity study, groups of CD-1 male or female mice were administered seven consecutive daily intraperitoneal doses (n=3 per dose) of the peptides (SEQ ID NO: 7, SEQ ID NO: 29, SEQ ID NO: 53) dissolved in normal saline for injection. Each peptide was evaluated at 2 to 3 dose levels ranging from 2.5 to 7.5 mg/kg/day. Mice were weighed at least once daily and observed at least twice daily for any abnormal findings and determination of overall health. At 24 hrs after the last dose, mice were humanely euthanized, with blood collected through cardiac puncture into K2EDTA microtainers to assess hematological parameters. All three peptides were tolerated at the highest dose evaluated (7.5 mg/kg/day) for 7 days.

C. glabrata [13] = details: 24 h
[14] = system: Microsporum gypseum ATCC 14683
[15] = system: Escherichia coli ATCC 25922; assay type: cell-based
[16] = system: Epidermophyton floccosum ATCC 52066
[17] = system: Enterococcus faecium ATCC 700221; details: CAMHB
[18] = system: Staphylococcus aureus ATCC 29213; assay type: cell-based
[19] = system: Trichophyton rubrum ATCC MYA-4438
[20] = system: Salmonella senftenberg CDC 127; assay type: cell-based
[21] = system: Pseudomonas aeruginosa ATCC 27853; assay type: cell-based
[22] = system: Mycobacterium smegmatis ATCC 700084; assay type: cell-based; details: ATCC 700084, 48 h
C. albicans [23] = assay: microbe, parasite or virus in culture; details: Candida albicans, ATCC90028, 24 h, read-out: MIC C. albicans
[24] = system: Epidermophyton floccosum ATCC 52066; assay: microbe, parasite or virus in culture; details: ATCC52066, read-out: MIC Epidermophyton floccosum
C. glabrata [25] = assay: microbe, parasite or virus in culture; details: Nakaseomyces glabratus, ATCC90030, 24 h, read-out: MIC C. glabrata
C. tropicalis [26] = assay: microbe, parasite or virus in culture; details: Candida tropicalis, ATCC90874, 24 h, read-out: MIC C. tropicalis
C. auris [27] = assay: microbe, parasite or virus in culture; details: Candidozyma auris, 24 h, read-out: MIC C. auris
[28] = system: Trichophyton rubrum ATCC MYA-4438; assay: microbe, parasite or virus in culture; details: read-out: MIC Trichophyton rubrum
C. krusei [29] = assay: microbe, parasite or virus in culture; details: Pichia kudriavzevii, 24 h, read-out: MIC C. krusei
[30] = system: Microsporum gypseum ATCC 14683; assay: microbe, parasite or virus in culture; details: Nannizzia gypsea, ATCC14683, read-out: MIC Microsporum gypseum
C. gattii [31] = assay: microbe, parasite or virus in culture; details: Cryptococcus gattii, 72 h, read-out: MIC C. gattii
C. neoformans [32] = assay: microbe, parasite or virus in culture; details: Cryptococcus neoformans, ATCC90112, 72 h, read-out: MIC C. neoformans
C. parapsilosis [33] = assay: microbe, parasite or virus in culture; details: Lodderomyces parapsilosis, ATCC22019, 24 h, read-out: MIC C. parapsilosis
[34] = CD-1, mouse, IP 7.5 mg/kg, plasma
[35] = CD-1, mouse, IV 5 mg/kg, plasma

N=C(N)NCCC[C@@H](N)C(=O)N[C@@H](CCCNC(=N)N)C(=O)N[C@H](CCCNC(=N)N)C(=O)NCCC(=O)N[C@H](CCCNC(=N)N)C(=O)N[C@@H](CCCNC(=N)N)C(=O)N[C@H](CCCNC(=N)N)C(=O)NCCC(=O)N[C@H](CCCNC(=N)N)C(=O)N[C@@H](CCCNC(=N)N)C(=O)N[C@H](CCCNC(=N)N)C(=O)N[C@@H](CCCNC(=N)N)C(=O)NCCC(=O)N[C@H](CCCNC(=N)N)C(=O)N[C@@H](CCCNC(=N)N)C(=O)N[C@H](CCCNC(=N)N)C(=O)N[C@@H](CCCNC(=N)N)C(N)=O [SEQ ID NO: 7, rRr-(Apr)-rRr-(Apr)-rRrR-(Apr)-rRrR-NH2] (H-[dR]R[dR][βAla][dR]R[dR][βAla][dR]R[dR]R[βAla][dR]R[dR]R-NH2)
MIC C. parapsilosis (C. parapsilosis [1]): 0.12 µg/mL (≈ 0.0497 µM) | AUC [2, 34]: 4740 ng·h/mL | Cmax [2, 34]: 1750 ng/mL | Tmax [2, 34]: 1 h | half-life [2, 34]: 1.69 h | AUC [2, 35]: 4420 ng·h/mL | C0 [2, 35]: 4480 ng/mL | Tmax [2, 35]: 0 h | half-life [2, 35]: 1.43 h | bioavailability ([2]; CD-1, mouse, plasma, IP 7.5 mg/kg, read-out: F (absolute bioavailability)): 74.8% | Tolerability of the PK doses ([2]; single 5 mg/kg IV and single 7.5 mg/kg IP): well tolerated | MIC C. auris (C. auris [3]): 1 µg/mL (≈ 0.414 µM) | MIC C. albicans (C. albicans [4]): 0.5 µg/mL (≈ 0.207 µM) | MIC Range Paecilomyces variotii (Paecilomyces variotii): 0.25 µg/mL (≈ 0.103 µM) | MIC C. tropicalis (C. tropicalis [5]): 0.25 µg/mL (≈ 0.103 µM) | MIC C. gattii (C. gattii [6]): 0.25 µg/mL (≈ 0.103 µM) | MIC Range Rhizopus arrhizus (Rhizopus arrhizus): 1 to 8 µg/mL | half-life at 427 μg/mL (Endoproteinase Arg-C; Endoproteinase Arg-C (isolated enzyme), read-out: Degradation half-life with Endoproteinase Arg-C (converted)): ~6 h | remaining at 6 h, 427 μg/mL (Endoproteinase Arg-C; Endoproteinase Arg-C, peptide 427 μg/mL, enzyme 3 μg/mL, 6 hrs, read-out: Percent peptide remaining after incubation with Endoproteinase Arg-C): 50.5% | MIC Range Coccidioides species (Coccidioides species): 0.25 to 0.5 µg/mL | MIC C. neoformans (C. neoformans [7]): 0.25 µg/mL (≈ 0.103 µM) | MIC C. dubliniensis (C. dubliniensis): 0.25 µg/mL (≈ 0.103 µM) | MIC Range Scedosporium spp. (Scedosporium spp.; 72 h): ≤0.12 µg/mL | MIC C. krusei (C. krusei [8]): 0.5 µg/mL (≈ 0.207 µM) | MTD ([9]; single IP dose, read-out: Tolerated single intraperitoneal dose): 10 to 15 mg/kg | MTD ([9]; single IV dose via tail vein, read-out: Tolerated single intravenous dose): 5 to 7.5 mg/kg | MIC Range Fusarium spp. (Fusarium spp.; 48 h): 0.12 to 0.5 µg/mL | MIC50 Candida species (Candida spp.): 0.5 µg/mL (≈ 0.207 µM) | MIC90 Candida species (Candida spp.): 1 µg/mL (≈ 0.414 µM) | EC50 (in vitro [10]): > 300 µg/mL | MIC Range Lomentospora prolificans (Lomentospora prolificans): ≤0.12 µg/mL | remaining at 2 h, 5 μM (in vitro [11]): ~100% | Tolerated dose (highest dose evaluated) [12]: 7.5 mg/kg/day | Clinical or hematological adverse effects ([12]; up to 7.5 mg/kg/day): No significant clinical or hematological adverse effects were observed | MIC C. glabrata (C. glabrata [13]): 0.5 µg/mL (≈ 0.207 µM)

N=C(N)NCCC[C@@H](N)C(=O)N[C@@H](CCCNC(=N)N)C(=O)N[C@H](CCCNC(=N)N)C(=O)NCCCCCCC(=O)N[C@H](CCCNC(=N)N)C(=O)N[C@@H](CCCNC(=N)N)C(=O)N[C@H](CCCNC(=N)N)C(=O)NCCCCC(=O)N[C@H](CCCNC(=N)N)C(=O)N[C@@H](CCCNC(=N)N)C(=O)N[C@H](CCCNC(=N)N)C(=O)N[C@@H](CCCNC(=N)N)C(=O)NCCCCC(=O)N[C@H](CCCNC(=N)N)C(=O)N[C@@H](CCCNC(=N)N)C(=O)N[C@H](CCCNC(=N)N)C(=O)N[C@@H](CCCNC(=N)N)C(=O)N[C@@H](CS)C(=O)O [SEQ ID NO: 5, rRr-(Ahp)-rRr-(Ava)-rRrR-(Ava)-rRrR-Cys] (H-[dR]R[dR][Ahp][dR]R[dR][Ava][dR]R[dR]R[Ava][dR]R[dR]RC-OH)
MIC Microsporum gypseum [14]: 64 µg/mL (≈ 24.3 µM) | MIC C. parapsilosis (C. parapsilosis [1]): 0.25 µg/mL (≈ 0.0949 µM) | MIC Escherichia coli [15]: 16 µg/mL (≈ 6.08 µM) | MIC Epidermophyton floccosum [16]: 16 µg/mL (≈ 6.08 µM) | MIC Enterococcus faecium [17]: 16 µg/mL (≈ 6.08 µM) | MIC C. auris (C. auris [3]): 0.25 µg/mL (≈ 0.0949 µM) | MIC Staphylococcus aureus [18]: 8 µg/mL (≈ 3.04 µM) | MIC C. albicans (C. albicans [4]): 1 µg/mL (≈ 0.38 µM) | MIC Trichophyton rubrum [19]: 2 µg/mL (≈ 0.76 µM) | MIC Salmonella senftenberg [20]: 16 µg/mL (≈ 6.08 µM) | MIC C. tropicalis (C. tropicalis [5]): 0.25 µg/mL (≈ 0.0949 µM) | MIC C. gattii (C. gattii [6]): 0.5 µg/mL (≈ 0.19 µM) | MIC Pseudomonas aeruginosa [21]: 32 µg/mL (≈ 12.2 µM) | MIC C. neoformans (C. neoformans [7]): 1 µg/mL (≈ 0.38 µM) | MIC C. krusei (C. krusei [8]): 1 µg/mL (≈ 0.38 µM) | MIC Range Fusarium spp. (Fusarium spp.; 48 h): 0.5 to 4 µg/mL | MIC C. glabrata (C. glabrata [13]): 0.5 µg/mL (≈ 0.19 µM) | MIC Mycobacterium smegmatis [22]: 2 µg/mL (≈ 0.76 µM)

CC[C@H](C)C[C@H](C)CCCCCCCCC(=O)N[C@H]1C[C@@H](O)[C@@H](NCCN)NC(=O)[C@@H]2[C@@H](O)CCN2C(=O)[C@H]([C@H](O)CCN)NC(=O)[C@H]([C@H](O)[C@@H](O)c2ccc(O)cc2)NC(=O)[C@@H]2C[C@@H](O)CN2C(=O)[C@H]([C@@H](C)O)NC1=O [CAS, caspofungin]
MIC (C. albicans [23]): 0.03 µg/mL (≈ 0.0274 µM) | MIC [24]: 0.06 µg/mL (≈ 0.0549 µM) | MIC (C. glabrata [25]): 0.06 µg/mL (≈ 0.0549 µM) | MIC (C. tropicalis [26]): 0.03 µg/mL (≈ 0.0274 µM) | MIC (C. auris [27]): 0.06 µg/mL (≈ 0.0549 µM) | MIC [28]: 2 µg/mL (≈ 1.83 µM) | MIC (C. krusei [29]): 0.25 µg/mL (≈ 0.229 µM) | MIC [30]: 0.12 µg/mL (≈ 0.11 µM) | MIC (C. gattii [31]): 16 µg/mL (≈ 14.6 µM) | MIC (C. neoformans [32]): 16 µg/mL (≈ 14.6 µM) | MIC (C. parapsilosis [33]): 0.25 µg/mL (≈ 0.229 µM) | MIC Range Scedosporium spp. (Scedosporium spp.; N = 2 strains, 72 hrs): 32 µg/mL (≈ 29.3 µM) | MIC Range Fusarium spp. (Fusarium spp.; N = 3 strains, 48 hrs): 32 µg/mL (≈ 29.3 µM)
